Test results: US11053251B2, “GPR35 modulators” (Prometheus Biosciences, Inc., priority 2019, dated 2021)

Tests used:
Human GPR35 [1] = target: Human GPR35 (Homo sapiens, UniProt Q9HC97, S294R); test: Alternative Beta-Arrestin Assay (JumpIn 294R Tango U2OS cells, LiveBLAzer-FRET B/G); assay type: cell-based; conditions: Human GPR35 expressing JumpIn 294R Tango U2OS cells, 5 hours treatment
Outline: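 U2OS Tango cells expressing human GPR35 S294R, plated overnight, exposed to serially diluted compounds for 5 hours. β-lactamase reporter read with LiveBLAzer-FRET B/G (CCF4-AM) after 2 h; EC50 from four-parameter fit, zaprinast as positive control.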

Human GPR35 [2] = target: Human GPR35 (Homo sapiens, UniProt Q9HC97); test: Beta-Arrestin Assay (Tango U2OS cells, LiveBLAzer-FRET B/G); assay type: cell-based; conditions: Human GPR35 expressing Tango U2OS cells, 5 hours treatment
Experimental: Human GPR35 expressing Tango U2OS cells were plated in 384-well format in clear bottom plates at a cell density of 10,000 cells/well and allowed to grow overnight. The next day, cells were treated with serially diluted test compounds for 5 hours. LiveBLAzer-FRET B/G (CCF4-AM) detection reagents were then added and cells were allowed to incubate for 2 hours before reading plates on a BioTek Cytation 5 plate reader. Zaprinast was used as a positive control for dose-response curves. In order to determine EC50 values, data were fit to a four-parameter dose-response curve.

Sequence of Human GPR35 (Homo sapiens, UniProt Q9HC97) (Q9HC97 whole entry): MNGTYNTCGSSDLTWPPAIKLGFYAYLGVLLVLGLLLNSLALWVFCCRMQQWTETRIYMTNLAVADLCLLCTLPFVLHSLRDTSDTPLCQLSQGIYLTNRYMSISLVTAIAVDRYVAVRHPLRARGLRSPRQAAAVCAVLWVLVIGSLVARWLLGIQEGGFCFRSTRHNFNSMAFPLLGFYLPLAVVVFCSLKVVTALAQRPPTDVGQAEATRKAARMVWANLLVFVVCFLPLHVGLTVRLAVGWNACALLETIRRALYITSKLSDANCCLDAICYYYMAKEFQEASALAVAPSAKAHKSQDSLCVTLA
Sequence of Human GPR35 (Homo sapiens, UniProt Q9HC97, S294R) (Q9HC97 whole entry S294R): as the sequence (Q9HC97 whole entry) above, with S294R counted along it

| Structure (SMILES) | EC50 (Human GPR35 [1]) | EC50 (Human GPR35 [2]) |
| --- | --- | --- |
| CCOC(=O)Cn1cc(-c2ccc(-c3nc4[nH]nnc4c(=O)[nH]3)c(OCC)c2)cn1 [Compound 126, Ethyl 2-(4-(3-ethoxy-4-(7-oxo-6,7-dihydro-3H-[1,2,3]triazolo[4,5-d]pyrimidin-5-yl)phenyl)-1H-pyrazol-1-yl)acetate] | ≤ 10 µM | ≤ 10 µM |
| CCOc1cc(-c2ccc(C(=O)OC)s2)ccc1-c1nc2[nH]nnc2c(=O)[nH]1 [Compound 116, Methyl 5-(3-ethoxy-4-(7-oxo-6,7-dihydro-3H-[1,2,3]triazolo[4,5-d]pyrimidin-5-yl)phenyl)thiophene-2-carboxylate] | ≤ 10 µM | ≤ 10 µM |
| CCOc1cc(N2CC[C@@H](C(=O)O)C2)ccc1-c1nc2[nH]nnc2c(=O)[nH]1 [Compound 167, (R)-1-(3-ethoxy-4-(7-oxo-6,7-dihydro-3H-[1,2,3]triazolo[4,5-d]pyrimidin-5-yl)phenyl)pyrrolidine-3-carboxylic acid] | ≤ 10 µM | ≤ 10 µM |
| CCOc1cc(C(=O)N2CC[C@H](C(=O)O)C2)ccc1-c1nc2[nH]nnc2c(=O)[nH]1 [Compound 160, (S)-1-(3-ethoxy-4-(7-oxo-6,7-dihydro-3H-[1,2,3]triazolo[4,5-d]pyrimidin-5-yl)benzoyl)pyrrolidine-3-carboxylic acid] | ≤ 10 µM | ≤ 10 µM |
| O=c1[nH]c(-c2ccc(CO)cc2)nc2[nH]nnc12 [Compound 148, 5-(4-(hydroxymethyl)phenyl)-3,6-dihydro-7H-[1,2,3]triazolo[4,5-d]pyrimidin-7-one] | > 50 µM | > 10 µM |
| CCOc1cc(Cc2cccc(C(=O)O)c2)ccc1-c1nc2[nH]nnc2c(=O)[nH]1 [Compound 176, 3-(3-ethoxy-4-(7-oxo-6,7-dihydro-3H-[1,2,3]triazolo[4,5-d]pyrimidin-5-yl)benzyl)benzoic acid] | ≤ 10 µM | ≤ 10 µM |
| CCOc1cc(C2CC2)ccc1-c1nc2[nH]nnc2c(=O)[nH]1 [Compound 130, 5-(4-cyclopropyl-2-ethoxyphenyl)-3,6-dihydro-7H-[1,2,3]triazolo[4,5-d]pyrimidin-7-one] | ≤ 10 µM | ≤ 10 µM |
| CCOc1cc(C(=O)N2CCC[C@@H]2C(=O)O)ccc1-c1nc2[nH]nnc2c(=O)[nH]1 [Compound 159, (3-ethoxy-4-(7-oxo-6,7-dihydro-3H-[1,2,3]triazolo[4,5-d]pyrimidin-5-yl)benzoyl)-D-proline] | 10 to 50 µM | > 10 µM |
| CCOc1cc(N2CCCC(C(=O)O)C2)ccc1-c1nc2[nH]nnc2c(=O)[nH]1 (stereo not drawn) [Compound 173, 1-(3-ethoxy-4-(7-oxo-6,7-dihydro-3H-[1,2,3]triazolo[4,5-d]pyrimidin-5-yl)phenyl)piperidine-3-carboxylic acid] | ≤ 10 µM | ≤ 10 µM |
| CCOc1cc(B(O)O)ccc1-c1nc2[nH]nnc2c(=O)[nH]1 [Compound 151, (3-ethoxy-4-(7-oxo-6,7-dihydro-3H-[1,2,3]triazolo[4,5-d]pyrimidin-5-yl)phenyl)boronic acid] | ≤ 10 µM | ≤ 10 µM |
| CCOc1cc(C(=O)NC2CCCC2)ccc1-c1nc2nn[nH]c2c(=O)[nH]1 [Compound 136, N-Cyclopentyl-3-ethoxy-4-(7-oxo-6,7-dihydro-3H-[1,2,3]triazolo[4,5-d]pyrimidin-5-yl)benzamide] | 10 to 50 µM | ≤ 10 µM |
| CCOc1cc(Cc2ccccc2C(=O)O)ccc1-c1nc2[nH]nnc2c(=O)[nH]1 [Compound 175, 2-(3-ethoxy-4-(7-oxo-6,7-dihydro-3H-[1,2,3]triazolo[4,5-d]pyrimidin-5-yl)benzyl)benzoic acid] | ≤ 10 µM | ≤ 10 µM |
| CCOc1cc(NCCC(=O)O)ccc1-c1nc2[nH]nnc2c(=O)[nH]1 [Compound 168, 3-((3-ethoxy-4-(7-oxo-6,7-dihydro-3H-[1,2,3]triazolo[4,5-d]pyrimidin-5-yl)phenyl)amino)propanoic acid] | ≤ 10 µM | ≤ 10 µM |
| O=C(O)c1ccc(-c2nc3[nH]nnc3c(=O)[nH]2)cc1 [Compound 144, 4-(7-oxo-6,7-dihydro-3H-[1,2,3]triazolo[4,5-d]pyrimidin-5-yl)benzoic acid] | ≤ 10 µM | ≤ 10 µM |

Next, values leading:

| EC50 (Human GPR35 [1]) | EC50 (Human GPR35 [2]) | Structure (SMILES) |
| --- | --- | --- |
| ≤ 10 µM | ≤ 10 µM | CCOc1cc(-c2cccnc2)ccc1-c1nc2[nH]nnc2c(=O)[nH]1 [Compound 102, 5-(2-Ethoxy-4-(pyridin-3-yl)phenyl)-3,6-dihydro-7H-[1,2,3]triazolo[4,5-d]pyrimidin-7-one] |
| ≤ 10 µM | ≤ 10 µM | CCOc1cc(-c2cncc(C(=O)OC)c2)ccc1-c1nc2[nH]nnc2c(=O)[nH]1 [Compound 112, Methyl 5-(3-ethoxy-4-(7-oxo-6,7-dihydro-3H-[1,2,3]triazolo[4,5-d]pyrimidin-5-yl)phenyl)nicotinate] |
| ≤ 10 µM | ≤ 10 µM | CCOc1cc(-c2ccccn2)ccc1-c1nc2[nH]nnc2c(=O)[nH]1 [Compound 105, 5-(2-Ethoxy-4-(pyridin-2-yl)phenyl)-3,6-dihydro-7H-[1,2,3]triazolo[4,5-d]pyrimidin-7-one] |
| 10 to 50 µM | ≤ 10 µM | CCOc1cc(-c2ccccc2C(=O)O)ccc1-c1nc2[nH]nnc2c(=O)[nH]1 [Compound 109, 3′-Ethoxy-4′-(7-oxo-6,7-dihydro-3H-[1,2,3]triazolo[4,5-d]pyrimidin-5-yl)-[1,1′-biphenyl]-2-carboxylic acid] |
| ≤ 10 µM | ≤ 10 µM | CCOc1cc(-c2ccc(Cl)c(C(=O)O)c2)ccc1-c1nc2[nH]nnc2c(=O)[nH]1 [Compound 180, 4-chloro-3′-ethoxy-4′-(7-oxo-6,7-dihydro-3H-[1,2,3]triazolo[4,5-d]pyrimidin-5-yl)-[1,1′-biphenyl]-3-carboxylic acid] |
| ≤ 10 µM | ≤ 10 µM | CCOc1cc(-c2ccc(C(=O)O)s2)ccc1-c1nc2[nH]nnc2c(=O)[nH]1 [Compound 117, 5-(3-Ethoxy-4-(7-oxo-6,7-dihydro-3H-[1,2,3]triazolo[4,5-d]pyrimidin-5-yl)phenyl)thiophene-2-carboxylic acid] |
| ≤ 10 µM | ≤ 10 µM | CCOc1cc(-c2cnn(CC(=O)O)c2)ccc1-c1nc2[nH]nnc2c(=O)[nH]1 [Compound 127, 2-(4-(3-Ethoxy-4-(7-oxo-6,7-dihydro-3H-[1,2,3]triazolo[4,5-d]pyrimidin-5-yl)phenyl)-1H-pyrazol-1-yl)acetic acid] |
| ≤ 10 µM | ≤ 10 µM | CCOc1cc(-c2cc(N)cc(C(=O)O)c2)ccc1-c1nc2[nH]nnc2c(=O)[nH]1 [Compound 123, 5-amino-3′-ethoxy-4′-(7-oxo-6,7-dihydro-3H-[1,2,3]triazolo[4,5-d]pyrimidin-5-yl)-[1,1′-biphenyl]-3-carboxylic acid] |
| ≤ 10 µM | ≤ 10 µM | CCOc1cc(-c2ccccc2C(=O)OC)ccc1-c1nc2[nH]nnc2c(=O)[nH]1 [Compound 106, Methyl 3′-ethoxy-4′-(7-oxo-6,7-dihydro-3H-[1,2,3]triazolo[4,5-d]pyrimidin-5-yl)-[1,1′-biphenyl]-2-carboxylate] |
| ≤ 10 µM | ≤ 10 µM | CCOc1cc(-c2c[nH]c(C(=O)O)c2)ccc1-c1nc2[nH]nnc2c(=O)[nH]1 [Compound 178, 4-(3-ethoxy-4-(7-oxo-6,7-dihydro-3H-[1,2,3]triazolo[4,5-d]pyrimidin-5-yl)phenyl)-1H-pyrrole-2-carboxylic acid] |
| ≤ 10 µM | ≤ 10 µM | CCOc1cc(-c2cncc(C(=O)O)c2)ccc1-c1nc2[nH]nnc2c(=O)[nH]1 [Compound 113, 5-(3-Ethoxy-4-(7-oxo-6,7-dihydro-3H-[1,2,3]triazolo[4,5-d]pyrimidin-5-yl)phenyl)nicotinic acid] |
| ≤ 10 µM | ≤ 10 µM | CCOc1cc(C(=O)Nc2cccnc2)ccc1-c1nc2[nH]nnc2c(=O)[nH]1 [Compound 141, 3-ethoxy-4-(7-oxo-6,7-dihydro-3H-[1,2,3]triazolo[4,5-d]pyrimidin-5-yl)-N-(pyridin-3-yl)benzamide] |
| ≤ 10 µM | ≤ 10 µM | CCOc1cc(-c2ccc(CC(=O)OC)cc2)ccc1-c1nc2[nH]nnc2c(=O)[nH]1 [Compound 114, Methyl 2-(3′-ethoxy-4′-(7-oxo-6,7-dihydro-3H-[1,2,3]triazolo[4,5-d]pyrimidin-5-yl)-[1,1′-biphenyl]-4-yl)acetate] |
